# Test results as given in patent US12012410B2, “Substituted pyrazolo[1,5-a]pyrazines for spinal muscular atrophy” (REBORNA BIOSCIENCES, INC., priority 2018, dated 2024).
# Counter-ions that a name gives are not always drawn.
# Test system: FL-SMN mRNA (SMN transcript containing exons 7 and 8)
# Assay: Live-cell assay to measure changes in FL-SMN mRNA levels (qPCR) after exposure to the compounds
# Format: cell-based, human
# Conditions: fibroblasts derived from patients SMA (GM03813); 24 hours incubation
# Procedure: In this example, each test compound was administered to cultured cells, and changes in the expression levels of mRNA transcripts of SMN, i.e., FL-SMN containing exons 7 and 8 and Delta7 with exon 7 skipped, were examined using PCR.
# Fibroblasts derived from patients SMA (GM03813) (Coriell Cell Repositories) were cultured with passages using DMEM (High Glucose) (Life Technologies) supplemented with 10% FBS (Life Technologies). Cells were seeded in tissue-culture-treated 96-well plates (Corning) at 1.5 or 0.5×10^4 cells/well in 100 μL of medium. The cells were incubated in 5% CO2 for 6 hours, and the medium was replaced with 100 μL of medium (with DMSO, 0.1% final concentration) containing each of the compounds given in the Examples. After additional incubation for 24 hours under the same conditions, the cells were washed once with D-PBS(—) (Wako) and 25 μL/well of the lysis solution (with gDNA Remove) contained in the SuperPrep (registered trademark) Cell Lysis & RT Kit for qPCR (Toyobo life science) was added according to the manufacturer's instructions so that the cells were lysed and the genomic DNA was degraded. Furthermore, 5 μL of the STOP solution (with RNase Inhibitor) contained in the kit was added to provide RNA-containing solutions. Six microliters of the RNA-containing solutions were each mixed with 14 μL of a reverse transcription solution containing transcriptase together with dNTP, random primers and an oligodT primer. Reverse transcription was performed at 37° C. (15 min), 50° C. (5 min), and 98° C. (5 min), to give total cDNAs. The total cDNAs were diluted 30-fold with Ultra-pure water (Invitrogen) to measure the expression levels of FL-SMN, delta7, and GAPDH. For quantitative PCR (qPCR), a PCR solution was prepared according to the instructions of the manufacturer of the THUNDERBIRD (registered trademark) Probe qPCR Mix (Toyobo life science). Five microliters of the diluted total cDNA solutions and oligo DNA standard solutions, each containing either 001-Standard FL-SMN (SEQ ID NO. 1) or 002-Standard delta7 (SEQ ID NO. 2), were each mixed with 10 μL of each of the PCR solutions containing a qPCR probe, primers, and PCR enzyme. […] The oligoDNA standard solutions were prepared as those containing either of 5×10^8, 5×10^7, 5×10^6, 5×10^5, 5×10^4, 5×10^3, 5×10^2, 5×10, 5, or 0 copies. For the oligo DNA standards, primers, and probes, oligonucleotides synthesized by Integrated DNA Technologies, Inc. (IDT) were used. […] FIGS. 3B and 3D show their detection mechanisms. The final concentrations of the primers and probes added were 0.4 μM and 0.15 μM, respectively. The qPCR was performed using the following conditions on a ViiA7 instrument (Applied Biosystems): first stage: 95° C. (1 min)→second stage: 95° C. (15 sec)→third stage: 60° C. (1 min)→40 repeated cycles of the second and third stages. The GAPDH mRNA was used as the internal control, and the commercially available 20×gene expression PCR assay (Life Technologies, 4326317E, Hs99999905_ml) and Standard GAPDH (SEQ ID NO. 7) (see FIG. 1) was used to determine the number of copies of this gene. The measurement values obtained for the samples to be measured were standardized against the respective value obtained for GAPDH.
# Using the above-mentioned assays, the activities of the compounds of the Examples were evaluated. Specifically, the percentages of the FL-SMN and delta7 values obtained using DMSO without the compounds and standardized against GAPDH were set as 100% and those of the FL-SMN and delta7 values obtained at the time of administration of the compounds and standardized against GAPDH were calculated. […]
row,SMILES,"Percentage of increase (FL-SMN mRNA standardized against GAPDH, DMSO control set as 100%)"
1,"Cc1cn2cc(-c3nc4ccc(N5CCN(C)CC5)cc4c(=O)[nH]3)cc(C)c2n1 [Example 55, 2-(2,8-dimethylimidazo[1,2-a]pyridin-6-yl)-6-(4-methylpiperazin-1-yl)quinazolin-4(3H)-one]",** (equal to or higher than 120% but lower than 150%)
2,"Cc1cn2cc(-c3ccc4nc(C5(F)CCN(C6CC6)CC5)[nH]c(=O)c4n3)cc(F)c2n1 [Example 102, 2-(1-cyclopropyl-4-fluoropiperidin-4-yl)-6-(8-fluoro-2-methylimidazo[1,2-a]pyridin-6-yl)pyrido[3,2-d]pyrimidin-4(3H)-one]",** (equal to or higher than 120% but lower than 150%)
3,"Cc1cn2cc(-c3ccc4nc(C5(F)CCN(C)CC5)[nH]c(=O)c4c3)cc(F)c2n1 [Example 86, 2-(4-fluoro-1-methylpiperidin-4-yl)-6-(8-fluoro-2-methylimidazo[1,2-a]pyridin-6-yl)quinazolin-4(3H)-one]",*** (equal to or higher than 150% but lower than 180%)
4,"Cc1cn2nc(-c3nc4ccc(N5CCN(C)C[C@@H]5C)cc4c(=O)[nH]3)cc2c(C)n1 [Example 127, (S8)-6-(2,4-simethylpiperazin-1-yl)-2-(4,6-dimethylpyrazolo[1,5-a]pyrazin-2-yl)quinazolin-4(3H)-one]",*** (equal to or higher than 150% but lower than 180%)
5,"Cc1cn2nc(-c3nc4ccc(N5CCN(C)CC5)cc4c(=O)[nH]3)cc2c(C)n1 [Example 6, 2-(4,6-Dimethylpyrazolo[1,5-α]pyrazin-2-yl)-6-(4-methylpiperazin-1-yl)quinazolin-4(3H)-one dihydrochloride]",**** (equal to or higher than 180%)
6,"COCCN1CCC(c2nc3cnc(-c4cc(F)c5nc(C)cn5c4)cc3c(=O)[nH]2)CC1 [Example 112, 6-(8-fluoro-2-methylimidazo[1,2-a]pyridin-6-yl)-2-[1-(2-methoxyethyl)piperidin-4-yl]pyrido[3,4-d]pyrimidin-4(3H)-one]",**** (equal to or higher than 180%)
7,"Cc1cn2cc(-c3ccc4c(=O)n(C5CCN(C6CC6)CC5)cnc4c3)cc(F)c2n1 [Example 39, 3-(1-cyclopropylpiperidin-4-yl)-7-(8-fluoro-2-methylimidazo[1,2-a]pyridin-6-yl)quinazolin-4(3H)-one]",*** (equal to or higher than 150% but lower than 180%)
8,"Cc1nc2c(F)cc(-c3cc4c(=O)[nH]c(C5(F)CCN(C6CC6)CC5)nc4cn3)cc2o1 [Example 107, 2-(1-cyclopropyl-4-fluoropiperidin-4-yl)-6-(4-fluoro-2-methyl-1,3-benzoxazol-6-yl)pyrido[3,4-d]pyrimidin-4(3H)-one]",** (equal to or higher than 120% but lower than 150%)
9,"CCN1CCN(c2ccc3nc(-c4cc5c(C)nc(C)cn5n4)[nH]c(=O)c3c2)[C@@H](C)C1 [Example 130, (S)-2-(4,6-dimethylpyrazolo[1,5-a]pyrazin-2-yl)-6-(4-ethyl-2-methylpiperazin-1-yl)quinazolin-4(3H)-one]",*** (equal to or higher than 150% but lower than 180%)
10,"Cc1cn2cc(-c3ccc4nc(C5(F)CCN(C(C)C)CC5)[nH]c(=O)c4c3)cc(F)c2n1 [Example 91, 2-(4-fluoro-1-isopropylpiperidin-4-yl)-6-(8-fluoro-2-methylimidazo[1,2-a]pyridin-6-yl)quinazolin-4(3H)-one]",**** (equal to or higher than 180%)
11,"COc1cnc(-c2nc3ccc(N4CCN(C)CC4)cc3c(=O)[nH]2)cc1C [Example 76, 2-(5-methoxy-4-methylpyridin-2-yl)-6-(4-methylpiperazin-1-yl)quinazolin-4(3H)-one]",* (equal to or higher than 100% but lower than 120%)
12,"CN1CCC(c2nc3ccc(-c4ccc5nc(C(F)(F)F)cn5c4)cc3c(=O)[nH]2)CC1 [Example 66, 2-(1-methylpiperidin-4-yl)-6-[2-(trifluoromethyl)imidazo [1,2-a]pyridin-6-yl]quinazolin-4(3H)-one]",* (equal to or higher than 100% but lower than 120%)
13,"Cc1cn2cc(-c3cc4c(=O)[nH]c(C5CCN(C6CC6)CC5)nc4cn3)cc(F)c2n1 [Example 114, 2-(1-cyclopropylpiperidin-4-yl)-6-(8-fluoro-2-methylimidazo[1,2-a]pyridin-6-yl)pyrido[3,4-d]pyrimidin-4(3H)-one]",**** (equal to or higher than 180%)
14,"Cc1nc2c(F)cc(-c3cc(F)c4nc(C5CCN(C6CC6)CC5)[nH]c(=O)c4c3)cc2o1 [Example 28, 2-(1-cyclopropylpiperidin-4-yl)-8-fluoro-6-(4-fluoro-2-methyl-1,3-benzoxazol-6-yl)quinazolin-4(3H)-one]",**** (equal to or higher than 180%)
15,"Cc1cn2cc(-c3ccc4nc(C5(C)CCN(C)CC5)[nH]c(=O)c4c3)ccc2n1 [Example 84, 2-(1,4-dimethylpiperidin-4-yl)-6-(2-methylimidazo[1,2-a]pyridin-6-yl)quinazolin-4(3H)-one]",* (equal to or higher than 100% but lower than 120%)
16,"COc1ccnc(-c2nc3ccc(C4CCN(C)CC4)cc3c(=O)[nH]2)c1 [Example 48, 2-(4-Methoxypyridin-2-yl)-6-(1-methylpiperidin-4-yl)quinazolin-4(3H)-one]",* (equal to or higher than 100% but lower than 120%)
17,"Cc1cn2cc(-c3ccc4c(=O)n(C5CCN(C)CC5)cnc4c3)ccc2n1 [Example 26, 7-(2-methylimidazo[1,2-a]pyridine-6-yl)-3-(1-methylpiperidin-4-yl) kinazoline-4 (3H)-one]",**** (equal to or higher than 180%)
18,"CCN1CCC(F)(c2nc3c(C)cc(-c4cc(F)c5nc(C)cn5c4)nc3c(=O)[nH]2)CC1 [Example 100, 2-(1-ethyl-4-fluoropiperidin-4-yl)-6-(8-fluoro-2-methylimidazo[1,2-a]pyridin-6-yl)-8-methylpyrido[3,2-d]pyrimidin-4(3H)-one]",**** (equal to or higher than 180%)
19,"CCN1CCN(c2ccc3nc(-c4cc5c(C)nc(C)cn5n4)[nH]c(=O)c3c2)[C@H](C)C1 [Example 131, (R)-2-(4,6-dimethylpyrazolo[1,5-a]pyrazin-2-yl)-6-(4-ethyl-2-methylpiperazin-1-yl)quinazolin-4(3H)-one]",*** (equal to or higher than 150% but lower than 180%)
20,"COc1ccc(F)c(-c2nc3ccc(C4CCN(C)CC4)cc3c(=O)[nH]2)c1 [Example 49, 2-(2-fluoro-5-methoxyphenyl)-6-(1-methylpiperidin-4-yl)quinazolin-4(3H)-one]",* (equal to or higher than 100% but lower than 120%)
21,"Cc1cn2cc(-c3ccc4nc(C5CCN(C)CC5)[nH]c(=O)c4c3)ccc2n1 [Example 9, 6-(2-Methylimidazo[1,2-α]pyridin-6-yl)-2-(1-methylpiperidin-4-yl)quinazolin-4(3H)-one]",**** (equal to or higher than 180%)
